Results published in ChEMBL document CHEMBL1201862, “PubChem BioAssay data set” (2004).
Calls of active or inactive are those of the source.

Assays:
Orexin receptor type 2 [1] = molecular target: T1, Orexin receptor type 2 (Homo sapiens, UniProt O43614); experiment: Counterscreen assay for antagonists of the orexin 1 receptor (OX1R; HCRTR1): Fluorescence-based cell-based dose response assay for antagonists of the orexin 2 receptor (OX2R; HCRTR2), run by assay provider.; format: functional
T1 sequence (O43614 whole entry): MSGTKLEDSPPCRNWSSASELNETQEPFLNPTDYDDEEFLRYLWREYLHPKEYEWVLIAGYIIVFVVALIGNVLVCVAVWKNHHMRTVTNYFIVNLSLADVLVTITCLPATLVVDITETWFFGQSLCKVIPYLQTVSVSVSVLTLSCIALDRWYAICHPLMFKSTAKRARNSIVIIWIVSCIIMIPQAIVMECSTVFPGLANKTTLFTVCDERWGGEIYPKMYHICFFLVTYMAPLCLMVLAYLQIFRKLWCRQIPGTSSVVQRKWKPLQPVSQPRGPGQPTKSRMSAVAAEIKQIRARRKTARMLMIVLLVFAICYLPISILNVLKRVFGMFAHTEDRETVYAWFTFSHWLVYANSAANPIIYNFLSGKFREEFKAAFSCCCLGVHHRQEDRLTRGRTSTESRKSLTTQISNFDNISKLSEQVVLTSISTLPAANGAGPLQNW

[2] = molecular target: T2, Orexin/Hypocretin receptor type 1 (Homo sapiens, UniProt O43613); experiment: Homogeneous Time Resolved Fluorescence (HTRF)-based cell-based high throughput dose response assay for antagonists of the orexin 1 receptor (OX1R; HCRTR1). [Related pubchem assays (depositor defined):AID434989, AID435008, AID463079, AID485270, AID492963, AID492964, AID492965, AID493232, AID504717, AID504718]; format: functional
T2 sequence (O43613 whole entry): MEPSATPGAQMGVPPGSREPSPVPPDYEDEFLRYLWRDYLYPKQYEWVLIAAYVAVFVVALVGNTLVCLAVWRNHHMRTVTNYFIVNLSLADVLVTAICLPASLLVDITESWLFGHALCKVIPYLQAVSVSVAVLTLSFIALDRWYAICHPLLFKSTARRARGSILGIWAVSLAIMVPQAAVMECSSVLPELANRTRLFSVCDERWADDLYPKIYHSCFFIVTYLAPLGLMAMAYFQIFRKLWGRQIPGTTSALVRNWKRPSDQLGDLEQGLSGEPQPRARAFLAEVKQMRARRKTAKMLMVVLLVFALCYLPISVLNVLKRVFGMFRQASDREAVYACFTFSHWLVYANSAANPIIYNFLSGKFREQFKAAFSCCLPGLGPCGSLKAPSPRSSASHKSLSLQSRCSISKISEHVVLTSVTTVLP

[3] = (§1) Counterscreen for antagonists of the orexin 1 receptor (OX1R; HCRTR1): Fluorescence-based cell-based high throughput dose response assay to identify antagonists of the parental CHO cell line. [Related pubchem assays (depositor defined):AID434989, AID435008, AID463079, AID485270, AID492963, AID492964, AID492965, AID493232, AID504699, AID504701]; format: functional
[4] = molecular target: T2, Orexin/Hypocretin receptor type 1; experiment: Fluorescence-based cell-based high throughput dose response assay for antagonists of the orexin 1 receptor (OX1R; HCRTR1). [Related pubchem assays (depositor defined):AID434989, AID435008, AID463079, AID485270, AID492963, AID492964, AID492965, AID493232, AID504717, AID504718]; format: functional
CHO-K1 = experiment: as §1, with “Homogeneous time resolved fluorescence (HTRF)-based” for “Fluorescence-based”, “cell-based” for “cell-based high throughput”, “CHO-K1” for “CHO”; format: functional; details: Cricetulus griseus;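 further: potency for inhibition of ATP-stimulated IP1 production as antagonists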
Orexin receptor type 2 [5] = molecular target: T1, Orexin receptor type 2; experiment: Counterscreen assay for antagonists of the orexin 1 receptor (OX1R; HCRTR1): Homogeneous Time Resolved Fluorescence (HTRF)-based cell-based dose response assay for antagonists of the orexin 2 receptor (OX2R; HCRTR2), run by assay provider.; format: functional
Estrogen receptor = molecular target: T3, Estrogen receptor (Homo sapiens, UniProt P03372);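 further: potency for inhibiting coactivator peptide recruitment to the receptor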
T3 sequence (P03372 whole entry): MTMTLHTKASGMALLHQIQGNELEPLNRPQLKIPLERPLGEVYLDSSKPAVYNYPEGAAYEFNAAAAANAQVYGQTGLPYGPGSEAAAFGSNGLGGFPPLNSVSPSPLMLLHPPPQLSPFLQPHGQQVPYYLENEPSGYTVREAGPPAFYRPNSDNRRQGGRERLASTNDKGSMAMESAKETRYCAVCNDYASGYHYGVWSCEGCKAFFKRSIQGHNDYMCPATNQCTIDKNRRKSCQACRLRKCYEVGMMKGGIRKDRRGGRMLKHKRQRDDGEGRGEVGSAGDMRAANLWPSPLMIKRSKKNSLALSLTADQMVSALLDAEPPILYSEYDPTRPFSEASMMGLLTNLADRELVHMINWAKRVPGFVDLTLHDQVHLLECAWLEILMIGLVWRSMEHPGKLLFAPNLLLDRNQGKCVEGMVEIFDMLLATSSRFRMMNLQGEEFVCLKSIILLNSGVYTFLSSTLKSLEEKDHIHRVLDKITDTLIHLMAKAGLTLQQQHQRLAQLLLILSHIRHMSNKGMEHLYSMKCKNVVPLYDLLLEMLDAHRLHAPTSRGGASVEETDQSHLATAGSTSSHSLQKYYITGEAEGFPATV

[6] = molecular target: T4, Hepatocyte nuclear factor 4-alpha (Homo sapiens, UniProt P41235); format: functional, cell-based;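 further: biochemical luminescence-based dose-response counterscreen measuring inhibition of HNF4 dimerization, run alongside a screen for blockers of ABHD5–perilipin-5 interaction; split luciferase complementation of HNF4 fusion proteins in cell lysate measuring dimerization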
T4 sequence (P41235 whole entry): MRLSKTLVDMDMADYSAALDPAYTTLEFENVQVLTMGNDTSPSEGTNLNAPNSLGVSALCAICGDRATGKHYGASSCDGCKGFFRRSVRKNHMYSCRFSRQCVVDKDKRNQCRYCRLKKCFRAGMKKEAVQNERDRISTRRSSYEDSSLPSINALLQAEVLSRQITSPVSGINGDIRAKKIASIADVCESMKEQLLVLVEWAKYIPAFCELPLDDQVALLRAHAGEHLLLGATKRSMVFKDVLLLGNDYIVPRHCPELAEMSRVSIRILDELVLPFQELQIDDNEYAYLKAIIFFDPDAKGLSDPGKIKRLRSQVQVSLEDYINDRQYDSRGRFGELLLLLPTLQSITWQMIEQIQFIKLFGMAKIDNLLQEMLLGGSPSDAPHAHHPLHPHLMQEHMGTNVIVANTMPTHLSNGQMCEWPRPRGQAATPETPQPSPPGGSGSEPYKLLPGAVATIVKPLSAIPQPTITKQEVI

[7] = molecular target: T5, DNA repair protein RAD52 homolog (Homo sapiens, UniProt P43351); format: functional, biochemical
T5 sequence (P43351 whole entry): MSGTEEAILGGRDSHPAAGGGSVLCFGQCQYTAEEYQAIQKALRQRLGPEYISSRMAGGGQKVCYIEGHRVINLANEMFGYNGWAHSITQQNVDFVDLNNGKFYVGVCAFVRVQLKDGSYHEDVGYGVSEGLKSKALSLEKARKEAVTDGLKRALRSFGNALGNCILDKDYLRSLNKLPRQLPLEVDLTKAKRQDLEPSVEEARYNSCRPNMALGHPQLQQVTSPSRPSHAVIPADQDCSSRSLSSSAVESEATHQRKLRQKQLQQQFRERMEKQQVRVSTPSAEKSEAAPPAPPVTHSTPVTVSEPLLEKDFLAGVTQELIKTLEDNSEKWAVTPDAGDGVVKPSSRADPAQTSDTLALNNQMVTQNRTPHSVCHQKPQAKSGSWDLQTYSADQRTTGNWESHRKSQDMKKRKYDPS

[8] = molecular target: T6, DNA repair and recombination protein RAD54-like (Homo sapiens, UniProt Q92698); experiment: inhibitors of human RAD54 branch migration, confirmation, biochemical, fluorescence, cherry-picked samples, dose series (AID 651657); format: functional
T6 sequence (Q92698 whole entry): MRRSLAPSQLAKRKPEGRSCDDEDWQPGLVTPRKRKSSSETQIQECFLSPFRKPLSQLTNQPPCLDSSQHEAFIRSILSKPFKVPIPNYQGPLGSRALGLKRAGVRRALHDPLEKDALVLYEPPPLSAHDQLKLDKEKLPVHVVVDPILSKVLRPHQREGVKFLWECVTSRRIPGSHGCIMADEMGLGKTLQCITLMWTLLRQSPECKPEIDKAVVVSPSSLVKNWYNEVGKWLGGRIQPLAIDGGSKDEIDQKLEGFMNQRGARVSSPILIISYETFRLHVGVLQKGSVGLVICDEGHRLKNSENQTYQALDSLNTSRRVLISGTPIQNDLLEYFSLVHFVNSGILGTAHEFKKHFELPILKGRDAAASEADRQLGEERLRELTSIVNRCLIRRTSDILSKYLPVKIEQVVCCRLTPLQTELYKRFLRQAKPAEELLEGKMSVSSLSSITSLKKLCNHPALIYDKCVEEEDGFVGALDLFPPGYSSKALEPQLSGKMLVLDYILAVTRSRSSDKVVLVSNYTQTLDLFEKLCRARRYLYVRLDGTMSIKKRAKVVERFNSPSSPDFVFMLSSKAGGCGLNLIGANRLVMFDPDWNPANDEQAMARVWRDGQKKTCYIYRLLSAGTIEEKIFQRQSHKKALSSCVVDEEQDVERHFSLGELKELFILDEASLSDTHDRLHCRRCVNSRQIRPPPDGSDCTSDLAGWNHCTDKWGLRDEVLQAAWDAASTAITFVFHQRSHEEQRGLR

[9] = molecular target: T7, Sentrin-specific protease 1 (Homo sapiens, UniProt Q9P0U3); experiment: potency of human SENP1 inhibitors, dose response, biochemical, kinetic FRET (AID 651697); format: functional; details: read-out: IC50_Mean
T7 sequence (Q9P0U3 whole entry): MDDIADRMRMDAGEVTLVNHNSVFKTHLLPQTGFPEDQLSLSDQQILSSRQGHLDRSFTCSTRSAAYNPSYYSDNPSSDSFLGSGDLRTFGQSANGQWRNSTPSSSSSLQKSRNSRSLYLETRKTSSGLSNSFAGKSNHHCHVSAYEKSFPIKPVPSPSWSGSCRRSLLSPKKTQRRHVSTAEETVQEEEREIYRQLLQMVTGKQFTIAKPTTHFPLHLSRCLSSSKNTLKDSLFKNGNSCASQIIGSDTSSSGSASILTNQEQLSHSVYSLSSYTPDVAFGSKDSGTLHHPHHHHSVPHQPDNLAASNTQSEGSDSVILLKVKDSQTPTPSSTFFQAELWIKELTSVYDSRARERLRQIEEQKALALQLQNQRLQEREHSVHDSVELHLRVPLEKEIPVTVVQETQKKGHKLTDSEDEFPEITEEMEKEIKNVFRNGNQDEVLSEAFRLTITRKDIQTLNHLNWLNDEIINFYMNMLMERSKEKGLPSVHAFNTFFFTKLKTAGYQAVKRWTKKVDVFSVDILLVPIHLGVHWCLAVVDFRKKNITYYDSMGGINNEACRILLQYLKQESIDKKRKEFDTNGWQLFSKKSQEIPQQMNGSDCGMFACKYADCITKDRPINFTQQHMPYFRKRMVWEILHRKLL

[10] = molecular target: T7, Sentrin-specific protease 1; experiment: Dose response confirmation of small molecule inhibitors of the catalytic domain of the SUMO protease, SENP1 in a FRET assay.; format: functional; details: read-out: IC50_Mean
H4 = experiment: Luminescence Cell-Based Dose Response HTS to Identify Activators of 5'UTR Stem-Loop Driven Prion Protein mRNA Translation in H4 Neuroglioblastoma Cells. [Related pubchem assays: 1829 (Project Summary), 1814 (Primary HTS)]; format: functional; details: Homo sapiens
[11] = Luminescence Cell-Based Dose Confirmation HTS to Identify Activators of 5'UTR Stem-Loop Driven Alpha-Synuclein mRNA Translation in H4 Neuroglioblastoma Cells. [Related pubchem assays: 1829 (Project Summary), 1814 (Primary HTS)]; format: functional
[12] = Luminescence Cell-Based Dose Response HTS to Identify Activators of Luciferase Translation or Activity in H4 […] Cells. [Related pubchem assays: 1829 (Project Summary), 1814 (Primary HTS)]; format: functional

Which results are given for `CCn1c(SCC(=O)Nc2ccc3c(c2)c2ccccc2n3CC)nnc1-c1cnccn1`?
IC50 (Orexin receptor type 2 [1]): 38.9 µM (inactive); IC50 [2]: 0.0548 µM (active); IC50 [3]: > 49.8 µM (inactive); IC50 [4]: 2.18 µM (active); IC50 (CHO-K1): > 66.3 µM (inactive); IC50 (Orexin receptor type 2 [5]): 23.1 µM (inactive); IC50 (Estrogen receptor): > 50 µM (not active)

With `COc1ccc(C(C(=O)NC(C)(C)C)n2c(=O)c(-c3ccco3)nc3ccccc32)cc1` (stereo not given) as the compound, how does the IC50 [6] read?
Its IC50 is 1.78 µM (active).

With `CC(=O)Nc1cc(-c2cccc(C(=O)NCCN(C)C)c2)cn2c(-c3ccccc3)cnc12` as the compound, how does the AC50 [7] read?
The AC50 was 4.01 µM (active).

What about the AC50 [8] of the same compound?
The AC50 was 33.5 µM (active).

For `COC(=O)c1c(NC(=O)c2ccc(S(=O)(=O)N3CCOCC3)cc2)sc2c1CCN(C(C)C)C2`, which AC50 [8] is on record?
The AC50 was 14.7 µM (active).

With `COc1cccc(-c2nc3nc(C)cc(C)n3c2Nc2c(C)cccc2C)c1` as the compound, how does the IC50 [9] read?
The IC50 was 28.5 µM (inactive).

What about the IC50 [10] of the same compound?
The IC50 was 15.4 µM (active).

For `N#Cc1ccc(C(C(=O)NCc2ccccc2)n2c(=O)c(-c3ccco3)nc3ccccc32)cc1` (stereo not given), which IC50 [6] is on record?
The IC50 was 1.3 µM (active).

For `N#CC(=C1SC=CS1)c1nc(-c2ccccc2)cs1`, which IC50 (Orexin receptor type 2 [1]) is on record?
Its IC50 is 6.66 µM (active).

What about the EC50 (H4) of the same compound?
The EC50 was > 120 µM (not active).

What about the IC50 [2] of the same compound?
The IC50 was 0.749 µM (active).

And the EC50 [11]?
The EC50 was 0.204 µM (active).

What about the IC50 [3] of the same compound?
Its IC50 is > 49.7 µM (inactive).

And the IC50 [4]?
The IC50 was 1.02 µM (active).

What about the EC50 [12] of the same compound?
Its EC50 is 53.4 µM (active).

What about the IC50 (CHO-K1) of the same compound?
The IC50 was > 66.2 µM (inactive).

And the IC50 (Orexin receptor type 2 [5])?
The IC50 was 4.31 µM (active).

Which results are given for `N#Cc1ccc(-c2nc3ccc(Br)cn3c2Cc2ccccc2C(F)(F)F)cc1`?
IC50 [9]: 13.1 µM (active); IC50 [10]: 11.4 µM (active)
